Laboratory results published in patent US20080096228A1, “Compositions And Methods Relating To Mammalian Internal Ribosome Entry Sites” (THE REGENTS OF THE UNIVERSITY OF CALIFORNIA, priority 2006, published 2008).
Where “and” joins values, the source holds several entries; their conditions need not be identical. Equal entries are not always repeated. Structures can show the parent of a compound that is named as a salt.

B1: LEF1 IRES: human LEF1 5'UTR (1.178 kb) internal ribosome entry site, SEQ ID NO:1, in dicistronic vector pRSTF-LEF(1.2) (nucleic acid, listed as Homo sapiens)
DNA: TCAGCGCCGGCGAGGCGCGGGAGGAGGAGAAGCAGTGGGGAGGCGCAGCCGCTCACCTGCGGGGCAGGGCGCGGAGGAGGGACCCGGGCTGCGCGCTCTCGGGCCGAGGAACCAGGACGCGCCCGGAGCCTCGCACGCGGCCAAGCTCGGGGCGTCCCCTCCCCTCGGCCGGGCGAACTCAAGGGGCGCAGCTCTTTGCTTTGACAGAGCTGGCCGGCGGAGGCGTGCAGAGCGGCGAGCCGGCGAGCCAGGCTGAGAAACTCGAGCCGGGAACAAAGAGGGGTCGGACTGAGTGTGTGTGTCGGCTCGAGCTCCGGGCAGAGGCATTTGGGCCCGAGGCCCCCGCTGTGACTCCCCGAGACTCCGCAGTGCCCTCCACTGCGGAGTCCCCGCGCTTGCCGGCAAAAACTTTATTCTTGGCAAACTTCTCTTTCTCTTCCCCTCCTCCTCGGCCCCCATCTTCTGCTCCTCCTCCTTCTCTAGCAGATTAAATGAGCCTCGAGAAGAAAAACCGAAGCGAAAGGGAAGAAAATAAGAAGATCTAAAACGGACATCTCCAGCGTGGGTGGCTCCTTTTTCTTTTTCTTTTTTTCCCACCCTTCAGGAAGTGGACGTTTCGTTATCTTCTGATCCTTGCACCTTCTTTTGGGGCAAACGGGGCCCTTCTGCCCAGATCCCCTCTCTTTTCTCGGAAAACAAACTACTAAGTCGGCATCCGGGGTAACTACAGTGGAGAGGGTTTCCGCGGAGACGCGCCGCCGGACCCTCCTCTGCACTTTGGGGAGGCGTGCTCCCTCCAGAACCGGCGTTCTCCGCGCGCAAATCCCGGCGACGCGGGGTCGCGGGGTGGCCGCCGGGGCAGCCTCGTCTAGCGCGCGCCGCGCAGACGCCCCCGGAGTCGCCAGCTACCGCAGCCCTCGCCGCCCAGTGCCCTTCGGCCTCGGGGGCGGGCGCCTGCGTCGGTCTCCGCGAAGCGGGAAAGCGCGGCGGCCGCCGGGATTCGGGCGCCGCGGCAGCTGCTCCGGCTGCCGGCCGGCGGCCCCGCGCTCGCCCGCCCCGCTTCCGCCCGCTGTCCTGCTGCACGAACCCTTCCAACTCTCCTTTCCTCCCCCACCCTTGAGTTACCCCTCTGTCTTTCCTGCTGTTGCGCGGGTGCTCCCACAGCGGAGCGGAGATTACAGAGCCGCCGGGATGCCCCAACTCTCCGGAGGAGGTGGCGGCGGCGGGGGGGACCCGGAACTCTGCGCCACGGACGAGATGA
modifications: (298)..(1095) IRES Sequence; (298)..(656) IRES Module 1; (656)..(1095) IRES Module 2

Assays:
LEF1 mRNA = assay: Northern blot of LEF1 mRNA in K562 cells; type: cell-based; details: 2 μM imatinib, 24 hours; for decrease of LEF1 mRNA levels (3.6 kb and 3.0 kb mRNAs): rapamycin 10 ng/mL or both, not normalized
Method: Total RNA was isolated from K562 cells using TriZol reagent (Invitrogen) according to the manufacturer's instructions. […] Approximately 20 μg of total RNA from K562 cells was analyzed on a Northern blot for LEF1 expression, respectively. Northern blotting was carried out as described elsewhere and the LEF1 ORF (open reading frame) probe was generated as described elsewhere and radiolabeled with ^32P-dATP. The blot was stripped and rehybridized with a ^32P-dATP radioloabeled GAPDH loading control probe.
Panel B: Northern blot analysis of total RNA isolated from K562 cells treated with inhibitors as described above. The three LEF1 mRNAs are indicated by arrows. A radiolabeled LEF-1 ORF cDNA probe was used to detect LEF1 mRNAs in the top panel. The blot was stripped and reprobed with GAPDH.

LEF-1 IRES [1] = assay: Capped dicistronic RNA transfection, LEF-1 IRES firefly luciferase, K562 cells; type: cell-based; details: 2 μM imatinib, 24 hours, p<0.001
Method: (§1) The capped dicistronic mRNAs were generated by in vitro transcription of the dicistronic (linearized with PMEI) plasmid using the T7-based Megascript in vitro transcription kit (Ambion) as per the manufacturer's protocol. The integrity of the transcripts was analyzed on a 1% agarose gel.
(§2) Approximately 6×10^5 cells (K562) were seeded in 6-well plates and 2 μg of in vitro synthesized dicistronic mRNA was transfected per well using the Transmessenger transfection kit (Qiagen). A ratio of 1:6 (1 μg of RNA: 6 μL of transmessenger reagent) was used according to the manufacturer's instructions. […] Cell lysates were then assayed for luciferase activities as described above. All transfections were performed in duplicate and carried out 3 times.
(§3) To determine whether Bcr-Abl regulation is compartmentalized and further examine whether it functions post-transcriptionally, an RNA transient transfection was carried out in K562 cells. […] In these experiments the inventors again utilized CVB3 as a control for regulation in subcellular compartments since it predominantly depends on cytoplasmic machinery for translation.

[2] = tested on: cap-dependent translation (RLuc); assay: Capped dicistronic RNA transfection, RLuc cap-dependent translation, K562 cells; type: cell-based; details: 2 μM imatinib, 24 hours
Method: as §1, §2, §3

[3] = tested on: LEF-1 protein expression in K562 cells; assay: LEF-1 protein expression in K562 cells, Western blot; type: cell-based; details: imatinib 2 uM, rapamycin 10 ng/mL or both, 24 hours
LEF-1 IRES [4] = assay: Dicistronic DNA transfection dual luciferase assay, LEF-1 IRES, K562 cells; type: cell-based; details: 2 μM imatinib, 24 hour treatment
[5] = tested on: cap-dependent translation (RLuc); assay: Dicistronic DNA transfection, RLuc cap-dependent translation, K562 cells; type: cell-based; details: 2 μM imatinib
GAPDH mRNA = assay: Northern blot of GAPDH mRNA (loading control) in K562 cells; type: cell-based; details: 2 μM imatinib, 24 hours
CVB3 IRES [6] = assay: Capped dicistronic RNA transfection, CVB3 IRES firefly luciferase, K562 cells; type: cell-based; details: 2 μM imatinib, 24 hours
Method: as §1, §2, §3

LEF1 IRES = assay: Dicistronic DNA transfection dual luciferase assay, LEF1 IRES, Ba/F3-Bcr-Abl-WT cells; type: cell-based, murine
Method: (§4) For transfection of the dicistronic plasmids into Ba/F3 cells, approximately 10×10^6 cells were seeded in […] and 10 μg of the reporter plasmid was transfected via a BTX 600 electroporator. […] Cell lysates were prepared for dual luciferase assays 8 hours post-transfection. […] Cell lysates were prepared for dual luciferase assays 24 hours post-transfection. Transfections were performed in duplicate and each experiment was carried out at least 3 times.
(§5) Cell lysates were assayed for luciferase activities using the Dual Luciferase Reporter Assay System (Promega) according to the manufacturer's protocol. Assays were performed using a SIRIUS luminometer (Berthold Detection Systems). FLuc:RLuc ratios were calculated for each sample, and the average value is represented as fold elevation over background, which is the Firefly luciferase: Renilla luciferase ratio (FLuc:RLuc) measured from the vector in the absence of an insert. […]
(§6) The dicistronic vector depicted in FIG. 4A contains 2 cistrons separated by an intercistronic region that also contains a hairpin structure. […] A dicistronic construct that contains the full length 1.2 kb LEF1 5′UTR and IRES, the empty vector with no insert (pRSTF), and the viral IRES of the well characterized coxsackievirus B3 (CVB3) were analyzed for comparison. […]

[7] = tested on: LEF-1 protein expression in primary CML cells; assay: LEF-1 protein expression in primary CML cells, Western blot; type: cell-based, human; details: rapamycin 10 ng/mL, 24 hours
Method: PB mononuclear cells (MNCs) were obtained by centrifugation through Ficoll-Hypaque, washed in PBS, and cryopreserved. To expand CML cells in vitro, cells were thawed and grown in media supplemented with 10% FBS and a growth factor cocktail consisting of 20 ng/ml granulocyte-macrophage colony stimulating factor, 20 ng/ml recombinant human interleukin 3, 20 ng/ml recombinant human stem cell factor, and 100 ng/ml granulocyte colony-stimulating factor. Following this, cells were incubated in liquid culture for 72-96 hrs, at 37° C. in a humidified atmosphere with 5% CO2 in serum-free medium (SFM) (StemCell Technologies, Vancouver, BC, Canada) supplemented with growth factors (GF) at concentrations similar to that found in stroma-conditioned medium. All cytokines were from PeproTech, Rocky Hills, N.J., except for GM-CSF (sargramostim, Immunex, Seattle, Wash.) and G-CSF (filgrastim, Amgen, Thousand Oaks, Calif.).

[8] = tested on: cap-dependent translation (RLuc); assay: Dicistronic DNA transfection, RLuc cap-dependent translation, Ba/F3-Bcr-Abl-WT cells; type: cell-based, murine; details: inhibitors for 6 hours
Method: as §4
Cell lysates were assayed for luciferase activities using the Dual Luciferase Reporter Assay System (Promega) according to the manufacturer's protocol. Assays were performed using a SIRIUS luminometer (Berthold Detection Systems). FLuc:RLuc ratios were calculated for each sample, and the average value is represented as fold elevation over background, which is the Firefly luciferase: Renilla luciferase ratio (FLuc:RLuc) measured from the vector in the absence of an insert.
as §6

CVB3 IRES [9] = assay: Dicistronic DNA transfection dual luciferase assay, CVB3 IRES, Ba/F3-Bcr-Abl-WT cells; type: cell-based, murine; details: 10 ng/mL rapamycin, 6 hours
Method: as §4, §5, §6

Row | Molecule | decrease of LEF1 mRNA after normalizing with GAPDH mRNA levels (LEF1 mRNA) | decrease of LEF1 mRNA levels (3.6 kb and 3.0 kb mRNAs) (LEF1 mRNA) | reduction of LEF-1 IRES activity in the cytoplasm (LEF-1 IRES [1]) | inhibition of RLuc translation, average [2] | LEF-1 protein levels [3] | decrease in LEF-1 IRES activity (LEF-1 IRES [4]) | decrease in LEF-1 IRES activity (LEF-1 IRES [4]; listed as Imatinib) | reduction of RLuc translation, average [5] | reduction of GAPDH mRNA levels (GAPDH mRNA) | effect on CVB3 IRES activity (CVB3 IRES [6]) | decrease in LEF-1 IRES activity (FLuc:RLuc) (LEF1 IRES; 10 ng/mL rapamycin, 6 hours) | LEF-1 protein levels [7] | decrease in RLuc activity (cap-dependent translation), average [8] | decrease in CVB3 IRES activity (FLuc:RLuc) (CVB3 IRES [9]) | elevation in the FLuc:RLuc ratio over empty vector (LEF1 IRES; 8 hours post-transfection, no inhibitor)
1 | Cc1ccc(NC(=O)c2ccc(CN3CCN(C)CC3)cc2)cc1Nc1nccc(-c2cccnc2)n1 [imatinib, imatinib mesylate] | 2 fold | 3 fold | 45% | 3.4 fold | significantly down-regulated | 2.3 fold | 3-4 fold and 3 fold | 2.6 fold | 1.4 fold | insensitive | – | – | – | – | –
2 | CO[C@H]1C[C@@H]2CC[C@@H](C)[C@@](O)(O2)C(=O)C(=O)N2CCCC[C@H]2C(=O)O[C@H]([C@H](C)C[C@@H]2CC[C@@H](O)[C@H](OC)C2)CC(=O)[C@H](C)/C=C(\C)[C@@H](O)[C@@H](OC)C(=O)[C@H](C)C[C@H](C)/C=C/C=C/C=C/1C [rapamycin] | – | ~2 fold | – | – | no effect | – | – | – | – | – | 38% | no effect | 2 fold | 33% | –
3 | B1 | – | – | – | – | – | – | – | – | – | – | – | – | – | – | 55 fold
